Data: the NIST ThermoML archive (doi:10.1021/je300632p)

Assay: xn = mol fraction of the nth substance listed
Conditions: 101 kPa, Liquid; for viscosity: Falling or rolling sphere viscometry; for mass density: Vibrating tube method

CCCCCO [pentan-1-ol] + CCO
Conditions | mass density [kg/m3] | viscosity [mPa·s]
293.15 K, x2 = 0 | 814.16 | 3.939
293.15 K, x2 = 0.101 | 812.81 | 3.557
293.15 K, x2 = 0.2 | 811.19 | 3.218
293.15 K, x2 = 0.3 | 809.41 | 2.884
293.15 K, x2 = 0.401 | 807.59 | 2.584
293.15 K, x2 = 0.5 | 805.44 | 2.272
293.15 K, x2 = 0.6 | 803.06 | 2.025
293.15 K, x2 = 0.7 | 800.17 | 1.784
293.15 K, x2 = 0.801 | 797.32 | 1.551
293.15 K, x2 = 0.901 | 793.6 | 1.349
298.15 K, x2 = 0 | 810.52 | 3.412
298.15 K, x2 = 0.101 | 809.14 | 3.098
298.15 K, x2 = 0.2 | 807.5 | 2.818
298.15 K, x2 = 0.3 | 805.67 | 2.541
298.15 K, x2 = 0.401 | 803.79 | 2.288
298.15 K, x2 = 0.5 | 801.6 | 2.021
298.15 K, x2 = 0.6 | 799.16 | 1.81
298.15 K, x2 = 0.7 | 796.21 | 1.603
298.15 K, x2 = 0.801 | 793.25 | 1.399
298.15 K, x2 = 0.901 | 789.45 | 1.222
303.15 K, x2 = 0 | 806.84 | 2.971
303.15 K, x2 = 0.101 | 805.44 | 2.713
303.15 K, x2 = 0.2 | 803.76 | 2.48
303.15 K, x2 = 0.3 | 801.9 | 2.249
303.15 K, x2 = 0.401 | 799.97 | 2.034
303.15 K, x2 = 0.5 | 797.73 | 1.805
303.15 K, x2 = 0.6 | 795.24 | 1.624
303.15 K, x2 = 0.7 | 792.21 | 1.444
303.15 K, x2 = 0.801 | 789.17 | 1.265
303.15 K, x2 = 0.901 | 785.28 | 1.109
308.15 K, x2 = 0 | 803.14 | 2.599
308.15 K, x2 = 0.101 | 801.71 | 2.385
308.15 K, x2 = 0.2 | 800 | 2.192
308.15 K, x2 = 0.3 | 798.1 | 1.997
308.15 K, x2 = 0.401 | 796.12 | 1.814
308.15 K, x2 = 0.5 | 793.83 | 1.617
308.15 K, x2 = 0.6 | 791.27 | 1.461
308.15 K, x2 = 0.7 | 788.18 | 1.304
308.15 K, x2 = 0.801 | 785.06 | 1.147
308.15 K, x2 = 0.901 | 781.06 | 1.01
313.15 K, x2 = 0 | 799.42 | 2.283
313.15 K, x2 = 0.101 | 797.95 | 2.105
313.15 K, x2 = 0.2 | 796.2 | 1.943
313.15 K, x2 = 0.3 | 794.26 | 1.779
313.15 K, x2 = 0.401 | 792.24 | 1.623
313.15 K, x2 = 0.5 | 789.89 | 1.452
313.15 K, x2 = 0.6 | 787.27 | 1.317
313.15 K, x2 = 0.7 | 784.11 | 1.181
313.15 K, x2 = 0.801 | 780.91 | 1.042
313.15 K, x2 = 0.901 | 776.81 | 0.921
318.15 K, x2 = 0 | 795.64 | 2.014
318.15 K, x2 = 0.101 | 794.14 | 1.865
318.15 K, x2 = 0.2 | 792.36 | 1.728
318.15 K, x2 = 0.3 | 790.38 | 1.59
318.15 K, x2 = 0.401 | 788.31 | 1.455
318.15 K, x2 = 0.5 | 785.91 | 1.308
318.15 K, x2 = 0.6 | 783.23 | 1.192
318.15 K, x2 = 0.7 | 780 | 1.072
318.15 K, x2 = 0.801 | 776.71 | 0.949
318.15 K, x2 = 0.901 | 772.51 | 0.841
323.15 K, x2 = 0 | 791.84 | 1.784
323.15 K, x2 = 0.101 | 790.29 | 1.658
323.15 K, x2 = 0.2 | 788.48 | 1.543
323.15 K, x2 = 0.3 | 786.46 | 1.426
323.15 K, x2 = 0.401 | 784.34 | 1.31
323.15 K, x2 = 0.5 | 781.88 | 1.181
323.15 K, x2 = 0.6 | 779.14 | 1.08
323.15 K, x2 = 0.7 | 775.83 | 0.975
323.15 K, x2 = 0.801 | 772.46 | 0.866
323.15 K, x2 = 0.901 | 768.16 | 0.771
328.15 K, x2 = 0 | 787.98 | 1.586
328.15 K, x2 = 0.101 | 786.4 | 1.48
328.15 K, x2 = 0.2 | 784.55 | 1.382
328.15 K, x2 = 0.3 | 782.49 | 1.283
328.15 K, x2 = 0.401 | 780.32 | 1.182
328.15 K, x2 = 0.5 | 777.8 | 1.07
328.15 K, x2 = 0.6 | 775 | 0.982
328.15 K, x2 = 0.7 | 771.63 | 0.889
328.15 K, x2 = 0.801 | 768.16 | 0.792
328.15 K, x2 = 0.901 | 763.76 | 0.707

CCCO [propan-1-ol] + CCO
Conditions | mass density [kg/m3] | viscosity [mPa·s]
293.15 K, x2 = 0 | 803.58 | 2.195
293.15 K, x2 = 0.1 | 802.08 | 2.034
293.15 K, x2 = 0.2 | 800.86 | 1.92
293.15 K, x2 = 0.301 | 799.68 | 1.825
293.15 K, x2 = 0.4 | 798.4 | 1.684
293.15 K, x2 = 0.5 | 797.31 | 1.586
293.15 K, x2 = 0.599 | 795.87 | 1.505
293.15 K, x2 = 0.701 | 794.36 | 1.408
293.15 K, x2 = 0.8 | 792.88 | 1.324
293.15 K, x2 = 0.9 | 791.44 | 1.242
298.15 K, x2 = 0 | 799.59 | 1.902
298.15 K, x2 = 0.1 | 798.08 | 1.81
298.15 K, x2 = 0.2 | 796.82 | 1.713
298.15 K, x2 = 0.301 | 795.65 | 1.632
298.15 K, x2 = 0.4 | 794.33 | 1.511
298.15 K, x2 = 0.5 | 793.22 | 1.425
298.15 K, x2 = 0.599 | 791.75 | 1.355
298.15 K, x2 = 0.701 | 790.21 | 1.272
298.15 K, x2 = 0.8 | 788.69 | 1.198
298.15 K, x2 = 0.9 | 787.22 | 1.127
303.15 K, x2 = 0 | 795.58 | 1.694
303.15 K, x2 = 0.1 | 794.05 | 1.615
303.15 K, x2 = 0.2 | 792.77 | 1.533
303.15 K, x2 = 0.301 | 791.57 | 1.464
303.15 K, x2 = 0.4 | 790.22 | 1.359
303.15 K, x2 = 0.5 | 789.08 | 1.284
303.15 K, x2 = 0.599 | 787.59 | 1.225
303.15 K, x2 = 0.701 | 786.02 | 1.152
303.15 K, x2 = 0.8 | 784.47 | 1.088
303.15 K, x2 = 0.9 | 782.96 | 1.024
308.15 K, x2 = 0 | 791.53 | 1.511
308.15 K, x2 = 0.1 | 789.98 | 1.446
308.15 K, x2 = 0.2 | 788.8 | 1.376
308.15 K, x2 = 0.301 | 787.45 | 1.317
308.15 K, x2 = 0.4 | 786.08 | 1.225
308.15 K, x2 = 0.5 | 784.92 | 1.16
308.15 K, x2 = 0.599 | 783.4 | 1.11
308.15 K, x2 = 0.701 | 781.8 | 1.046
308.15 K, x2 = 0.8 | 780.21 | 0.989
308.15 K, x2 = 0.9 | 778.67 | 0.933
313.15 K, x2 = 0 | 787.44 | 1.352
313.15 K, x2 = 0.1 | 785.86 | 1.297
313.15 K, x2 = 0.2 | 784.66 | 1.239
313.15 K, x2 = 0.301 | 783.29 | 1.188
313.15 K, x2 = 0.4 | 781.9 | 1.107
313.15 K, x2 = 0.5 | 780.71 | 1.051
313.15 K, x2 = 0.599 | 779.16 | 1.007
313.15 K, x2 = 0.701 | 777.53 | 0.952
313.15 K, x2 = 0.8 | 775.91 | 0.901
313.15 K, x2 = 0.9 | 774.33 | 0.852
318.15 K, x2 = 0 | 783.3 | 1.214
318.15 K, x2 = 0.1 | 781.7 | 1.167
318.15 K, x2 = 0.2 | 780.48 | 1.118
318.15 K, x2 = 0.301 | 779.09 | 1.074
318.15 K, x2 = 0.4 | 777.68 | 1.003
318.15 K, x2 = 0.5 | 776.45 | 0.954
318.15 K, x2 = 0.599 | 774.88 | 0.916
318.15 K, x2 = 0.701 | 773.22 | 0.867
318.15 K, x2 = 0.8 | 771.56 | 0.823
318.15 K, x2 = 0.9 | 769.95 | 0.78
323.15 K, x2 = 0 | 779.11 | 1.093
323.15 K, x2 = 0.1 | 777.49 | 1.053
323.15 K, x2 = 0.2 | 776.24 | 1.012
323.15 K, x2 = 0.301 | 774.83 | 0.973
323.15 K, x2 = 0.4 | 773.39 | 0.911
323.15 K, x2 = 0.5 | 772.14 | 0.867
323.15 K, x2 = 0.599 | 770.54 | 0.835
323.15 K, x2 = 0.701 | 768.85 | 0.792
323.15 K, x2 = 0.8 | 767.16 | 0.753
323.15 K, x2 = 0.9 | 765.52 | 0.715
328.15 K, x2 = 0 | 774.86 | 0.986
328.15 K, x2 = 0.1 | 773.22 | 0.953
328.15 K, x2 = 0.2 | 771.95 | 0.919
328.15 K, x2 = 0.301 | 770.52 | 0.884
328.15 K, x2 = 0.4 | 769.06 | 0.829
328.15 K, x2 = 0.5 | 767.78 | 0.79
328.15 K, x2 = 0.599 | 766.15 | 0.763
328.15 K, x2 = 0.701 | 764.43 | 0.725
328.15 K, x2 = 0.8 | 762.71 | 0.69
328.15 K, x2 = 0.9 | 761.02 | 0.657
